Test results: patent publication US20080260845A1, “MULTIPLE ACTIVE DRUG RESIN CONJUGATE” (priority 2003, published 2008)

Experiment: In vitro drug release (dissolution) of codeine/chlorpheniramine resin conjugate suspension
Type: physicochemical
Experimental: The dissolution testing shown in Tables I and II was conducted using a release medium of hydrochloric acid, sodium chloride, and sodium dodecylsulfate. […] The dissolution profile for chlorpheniramine, shown in Table II, also is even and predictable, for example, at the initial testing, 42 percent dissolution of chlorpheniramine at 1 hour, 65 percent at 3 hours, 78 percent at 6 hours, and 88 percent at 12 hours.
Further, Tables I and II show even, predictable drug release data at one and one half months, 3 months, 6 months, and 9 months, with only very minor variations. […] Thus, with aging of the product, the release profile is consistent, allowing use of the present invention in compliance with various stability requirements for pharmaceutical products.

[1] = 1-Hour, Initial, HCl/NaCl/sodium dodecylsulfate medium

## CN(C)CCC(c1ccc(Cl)cc1)c1ccccn1 (stereo not shown) [Chlorpheniramine, chlorpheniramine]
1-Hour, 1.5M, 4O C. aging
  Chlorpheniramine Release: 41%
1-Hour, 3M, 4O C. aging
  Chlorpheniramine Release: 43%
1-Hour, 3M, 25 C. aging
  Chlorpheniramine Release: 43%
1-Hour, 6M, 4O C. aging
  Chlorpheniramine Release: 39%
1-Hour, 6M, 25 C. aging
  Chlorpheniramine Release: 41%
1-Hour, 9M, 25 C. aging
  Chlorpheniramine Release: 42%
[1]
  Chlorpheniramine Release: 1-Hour 42%
1-Hour, Initial, HCl/NaCl/sodium dodecylsulfate medium, listed as chlorpheniramine
  Chlorpheniramine Release: 42%
3-Hour, 1.5M, 4O C. aging
  Chlorpheniramine Release: 63%
3-Hour, 3M, 4O C. aging
  Chlorpheniramine Release: 65%
3-Hour, 3M, 25 C. aging
  Chlorpheniramine Release: 64%
3-Hour, 6M, 4O C. aging
  Chlorpheniramine Release: 62%
3-Hour, 6M, 25 C. aging
  Chlorpheniramine Release: 63%
3-Hour, 9M, 25 C. aging
  Chlorpheniramine Release: 63%
3-Hour, Initial
  Chlorpheniramine Release: 3-Hour 65%
3-Hour, Initial, listed as chlorpheniramine
  Chlorpheniramine Release: 65%
6-Hour, 1.5M, 4O C. aging
  Chlorpheniramine Release: 77%
6-Hour, 3M, 4O C. aging
  Chlorpheniramine Release: 78%
6-Hour, 3M, 25 C. aging
  Chlorpheniramine Release: 77%
6-Hour, 6M, 4O C. aging
  Chlorpheniramine Release: 76%
6-Hour, 6M, 25 C. aging
  Chlorpheniramine Release: 76%
6-Hour, 9M, 25 C. aging
  Chlorpheniramine Release: 77%
6-Hour, Initial
  Chlorpheniramine Release: 6-Hour 78%
6-Hour, Initial, listed as chlorpheniramine
  Chlorpheniramine Release: 78%
12-Hour, 1.5M, 4O C. aging
  Chlorpheniramine Release: 87%
12-Hour, 3M, 4O C. aging
  Chlorpheniramine Release: 90%
12-Hour, 3M, 25 C. aging
  Chlorpheniramine Release: 88%
12-Hour, 6M, 4O C. aging
  Chlorpheniramine Release: 87%
12-Hour, 6M, 25 C. aging
  Chlorpheniramine Release: 87%
12-Hour, 9M, 25 C. aging
  Chlorpheniramine Release: 88%
12-Hour, Initial
  Chlorpheniramine Release: 12-Hour 88%
12-Hour, Initial, listed as chlorpheniramine
  Chlorpheniramine Release: 88%

## COc1ccc2c3c1O[C@H]1[C@@H](O)C=C[C@H]4[C@@H](C2)N(C)CC[C@@]341 [Codeine, codeine]
1-Hour, 1.5M, 4O C. aging
  Codeine Release: 55%
1-Hour, 3M, 4O C. aging
  Codeine Release: 56%
1-Hour, 3M, 25 C. aging
  Codeine Release: 54%
1-Hour, 6M, 4O C. aging
  Codeine Release: 54%
1-Hour, 6M, 25 C. aging
  Codeine Release: 54%
1-Hour, 9M, 25 C. aging
  Codeine Release: 54%
[1]
  Codeine Release: 1-Hour 54%
1-Hour, Initial, HCl/NaCl/sodium dodecylsulfate medium, listed as codeine
  Codeine Release: 54%
3-Hour, 1.5M, 4O C. aging
  Codeine Release: 77%
3-Hour, 3M, 4O C. aging
  Codeine Release: 77%
3-Hour, 3M, 25 C. aging
  Codeine Release: 75%
3-Hour, 6M, 4O C. aging
  Codeine Release: 77%
3-Hour, 6M, 25 C. aging
  Codeine Release: 75%
3-Hour, 9M, 25 C. aging
  Codeine Release: 75%
3-Hour, Initial
  Codeine Release: 3-Hour 75%
3-Hour, Initial, listed as codeine
  Codeine Release: 75%
6-Hour, 1.5M, 4O C. aging
  Codeine Release: 88%
6-Hour, 3M, 4O C. aging
  Codeine Release: 88%
6-Hour, 3M, 25 C. aging
  Codeine Release: 86%
6-Hour, 6M, 4O C. aging
  Codeine Release: 87%
6-Hour, 6M, 25 C. aging
  Codeine Release: 85%
6-Hour, 9M, 25 C. aging
  Codeine Release: 86%
6-Hour, Initial
  Codeine Release: 6-Hour 86%
6-Hour, Initial, listed as codeine
  Codeine Release: 86%
12-Hour, 1.5M, 4O C. aging
  Codeine Release: 95%
12-Hour, 3M, 4O C. aging
  Codeine Release: 95%
12-Hour, 3M, 25 C. aging
  Codeine Release: 93%
12-Hour, 6M, 4O C. aging
  Codeine Release: 94%
12-Hour, 6M, 25 C. aging
  Codeine Release: 93%
12-Hour, 9M, 25 C. aging
  Codeine Release: 94%
12-Hour, Initial
  Codeine Release: 12-Hour 93%
12-Hour, Initial, listed as codeine
  Codeine Release: 93%
